{"source": "patent US20070027150A1", "about": "(priority 2005, published 2007)", "data": [{"biological_target": "His-tagged N-terminal ATP binding domain (amino acid residues 9-236) of HSP90α (Homo sapiens, UniProt P07900)", "assay": "HSP90 inhibitor binding potency: TRF competition binding assay", "conditions": "Table I; read-out: Hsp90 IC50 Range", "procedure": "HSP90 Inhibitor Binding Potency: TRF Binding Assay\nIn this example, the binding potency of HSP90 inhibitors as measured by a TRF binding assay is described.\nTRF competition binding assays were performed to determine the binding potency (IC50 values) of HSP90 inhibitors. Purified His-tagged N-terminal ATP binding domain (amino acid residues 9-236) of HSP90α (HSP90α GeneID: 3320; mRNA Sequence NM_005348) was incubated for two hours at room temperature in binding buffer (50 mM HEPES, 6 mM MgCl2, 20 mM KCl and 0.1% BSA) with biotinylated radicicol and progressively higher concentrations of the competing compounds. A fraction of the mixture was transferred to capture plates (coated with streptavidin) and incubated for one hour at room temperature. After washing with DELFIA wash buffer, europium-labeled anti-his antibody was added and incubated for two hours at room temperature, followed by washing with DELFIA buffer. DELFIA enhancement solution was then added. After gentle shaking for 10 minutes, the plates were read in VICTOR for europium counts.", "units": {"IC50": "nM"}, "values": [{"compound": "Cc1nc(N)nc2c1C(=O)CC(C(C)C)C2", "note": "(stereo not drawn) [Compound 1, 2-amino-7-isopropyl-4-methyl-7,8-dihydroquinazolin-5(6H)-one]", "IC50": "> 10000"}, {"compound": "COc1ccc(C2CC(=O)c3c(C)nc(N)nc3C2)cc1", "note": "(stereo not drawn) [Compound 2, 2-amino-7-(4-methoxyphenyl)-4-methyl-7,8-dihydroquinazolin-5(6H)-one]", "IC50": "1000 to 10000"}, {"compound": "Cc1nc(N)nc2c1C(=O)CC(c1ccc(Cl)cc1)C2", "note": "(stereo not drawn) [Compound 3, 2-amino-7-(4-chlorophenyl)-4-methyl-7,8-dihydroquinazolin-5(6H)-one]", "IC50": "< 1000"}, {"compound": "Cc1nc(N)nc2c1C(=O)CC(c1cccnc1Cl)C2", "note": "(stereo not drawn) [Compound 4, 2-amino-7-(2-chloropyridin-3-yl)-4-methyl-7,8-dihydroquinazolin-5(6H)-one]", "IC50": "> 10000"}, {"compound": "COc1cccc(Cl)c1C1CC(=O)c2c(C)nc(N)nc2C1", "note": "(stereo not drawn) [Compound 5, 2-amino-7-(2-chloro-6-methoxy-phenyl)-4-methyl-7,8-dihydro-6H-quinazolin-5-one]", "IC50": "1000 to 10000"}, {"compound": "Cc1nc(N)nc2c1C(=O)CC(c1ccc(Cl)cc1Cl)C2", "note": "(stereo not drawn) [Compound 6, 2-amino-7-(2,4-dichlorophenyl)-4-methyl-7,8-dihydroquinazolin-5(6H)-one]", "IC50": "1000 to 10000"}, {"compound": "Cc1nc(N)nc2c1C(=O)CC(c1cccc(Br)c1)C2", "note": "(stereo not drawn) [Compound 7, 2-amino-7-(3-bromophenyl)-4-methyl-7,8-dihydroquinazolin-5(6H)-one]", "IC50": "1000 to 10000"}, {"compound": "Cc1nc(N)nc2c1C(=O)CC(c1ccccc1Br)C2", "note": "(stereo not drawn) [Compound 8, 2-amino-7-(2-bromophenyl)-4-methyl-7,8-dihydroquinazolin-5(6H)-one]", "IC50": "1000 to 10000"}, {"compound": "Cc1nc(N)nc2c1C(=O)CC(c1nccn1Cc1ccccc1)C2", "note": "(stereo not drawn) [Compound 9, 2-amino-7-(1-benzyl-1H-imidazol-2-yl)-4-methyl-7,8-dihydro-6H-quinazolin-5-one]", "IC50": "< 1000"}, {"compound": "Cc1nc(N)nc2c1C(=O)CC(c1c(Br)cnn1C)C2", "note": "(stereo not drawn) [Compound 10, 2-amino-7-(4-bromo-2-methyl-2H-pyrazol-3-yl)-4-methyl-7,8-dihydro-6H-quinazolin-5-one]", "IC50": "> 10000"}, {"compound": "Cc1nc(N)nc2c1C(=O)CC(c1nn(C)cc1Br)C2", "note": "(stereo not drawn) [Compound 11, 2-amino-7-(4-bromo-1-methyl-1H-pyrazol-3-yl)-4-methyl-7,8-dihydro-6H-quinazolin-5-one]", "IC50": "> 10000"}, {"compound": "Cc1nc(N)nc2c1C(=O)CC(c1ccccc1N1CCCCC1)C2", "note": "(stereo not drawn) [Compound 12, 2-amino-4-methyl-7-(2-piperidin-1-yl-phenyl)-7,8-dihydro-6H-quinazolin-5-one]", "IC50": "< 1000"}, {"compound": "Cc1nc(N)nc2c1C(=O)CC(c1ccccc1N1CCOCC1)C2", "note": "(stereo not drawn) [Compound 13, 2-amino-4-methyl-7-(2-morpholin-4-yl-phenyl)-7,8-dihydro-6H-quinazolin-5-one]", "IC50": "< 1000"}, {"compound": "Cc1nc(N)nc2c1C(=O)CC(c1ccccc1Cc1ccccc1)C2", "note": "(stereo not drawn) [Compound 14, 2-amino-7-(2-benzyl-phenyl)-4-methyl-7,8-dihydro-6H-quinazolin-5-one]", "IC50": "< 1000"}, {"compound": "Cc1cccc(C2CC(=O)c3c(C)nc(N)nc3C2)c1-c1ccccc1", "note": "(stereo not drawn) [Compound 15, 2-amino-4-methyl-7-(6-methyl-1,1′-biphenyl-2-yl)-7,8-dihydroquinazolin-5(6H)-one]", "IC50": "1000 to 10000"}, {"compound": "Cc1nc(N)nc2c1C(=O)CC(c1ccc(F)cc1Br)C2", "note": "(stereo not drawn) [Compound 16, 2-amino-7-(2-bromo-4-fluoro-phenyl)-4-methyl-7,8-dihydro-6H-quinazolin-5-one]", "IC50": "< 1000"}, {"compound": "Cc1nc(N)nc2c1C(=O)CC(c1ccccc1OC1CCCCC1)C2", "note": "(stereo not drawn) [Compound 17, 2-amino-7-[2-(cyclohexyloxy)phenyl]-4-methyl-7,8-dihydroquinazolin-5(6H)-one]", "IC50": "< 1000"}, {"compound": "COc1cccc(Br)c1C1CC(=O)c2c(C)nc(N)nc2C1", "note": "(stereo not drawn) [Compound 18, 2-amino-7-(2-bromo-6-methoxy-phenyl)-4-methyl-7,8-dihydro-6H-quinazolin-5-one]", "IC50": "1000 to 10000"}, {"compound": "Cc1cccc(C2CC(=O)c3c(C)nc(N)nc3C2)c1-c1cccnc1F", "note": "(stereo not drawn) [Compound 19, 2-amino-7-[2-(2-fluoropyridin-3-yl)-3-methylphenyl]-4-methyl-7,8-dihydroquinazolin-5(6H)-one]", "IC50": "1000 to 10000"}, {"compound": "COc1cccc(C2CCCCC2)c1C1CC(=O)c2c(C)nc(N)nc2C1", "note": "(stereo not drawn) [Compound 20, 2-amino-7-(2-cyclohexyl-6-methoxyphenyl)-4-methyl-7,8-dihydroquinazolin-5(6H)-one]", "IC50": "> 10000"}, {"compound": "Cc1cnc(Oc2ccccc2C2CC(=O)c3c(C)nc(N)nc3C2)s1", "note": "(stereo not drawn) [Compound 21, 2-amino-4-methyl-7-[2-(5-methyl-thiazol-2-yloxy)-phenyl]-7,8-dihydro-6H-quinazolin-5-one]", "IC50": "< 1000"}, {"compound": "COc1cccc(Oc2ccccc2)c1C1CC(=O)c2c(C)nc(N)nc2C1", "note": "(stereo not drawn) [Compound 22, 2-amino-7-(2-methoxy-6-phenoxyphenyl)-4-methyl-7,8-dihydroquinazolin-5(6H)-one]", "IC50": "1000 to 10000"}, {"compound": "Cc1nc(N)nc2c1C(=O)CC(c1ccccc1S(=O)(=O)c1ccccc1)C2", "note": "(stereo not drawn) [Compound 23, 2-amino-7-(2-benzenesulfonyl-phenyl)-4-methyl-7,8-dihydro-6H-quinazolin-5-one]", "IC50": "> 10000"}, {"compound": "Cc1nc(N)nc2c1C(=O)CC(c1cnccc1Oc1ccccc1)C2", "note": "(stereo not drawn) [Compound 24, 2-Amino-4-methyl-7-(4-phenoxy-pyridin-3-yl)-7,8-dihydro-6H-quinazolin-5-one]", "IC50": "< 1000"}, {"compound": "Cc1nc(N)nc2c1C(=O)CC(c1ccccc1-c1ccccn1)C2", "note": "(stereo not drawn) [Compound 25, 2-amino-4-methyl-7-(2-pyridin-2-ylphenyl)-7,8-dihydroquinazolin-5(6H)-one]", "IC50": "< 1000"}, {"compound": "Cc1nc(N)nc2c1C(=O)CC(c1ccccc1-c1cccnc1)C2", "note": "(stereo not drawn) [Compound 26, 2-amino-4-methyl-7-(2-pyridin-3-ylphenyl)-7,8-dihydroquinazolin-5(6H)-one]", "IC50": "< 1000"}, {"compound": "Cc1nc(N)nc2c1C(=O)CC(c1ccccc1-c1ccncc1)C2", "note": "(stereo not drawn) [Compound 27, 2-amino-4-methyl-7-(2-pyridin-4-ylphenyl)-7,8-dihydroquinazolin-5(6H)-one]", "IC50": "1000 to 10000"}, {"compound": "Cc1nc(N)nc2c1C(=O)CC(c1cccc(-c3ccccn3)c1)C2", "note": "(stereo not drawn) [Compound 28, 2-amino-4-methyl-7-(3-pyridin-2-ylphenyl)-7,8-dihydroquinazolin-5(6H)-one]", "IC50": "> 10000"}, {"compound": "Cc1nc(N)nc2c1C(=O)CC(c1cccc(-c3cccnc3)c1)C2", "note": "(stereo not drawn) [Compound 29, 2-amino-4-methyl-7-(3-pyridin-3-ylphenyl)-7,8-dihydroquinazolin-5(6H)-one]", "IC50": "> 10000"}, {"compound": "Cc1nc(N)nc2c1C(=O)CC(c1cccc(-c3ccncc3)c1)C2", "note": "(stereo not drawn) [Compound 30, 2-amino-4-methyl-7-(3-pyridin-4-ylphenyl)-7,8-dihydroquinazolin-5(6H)-one]", "IC50": "> 10000"}, {"compound": "Cc1nc(N)nc2c1C(=O)CC(c1ccccc1-c1cnccn1)C2", "note": "(stereo not drawn) [Compound 31, 2-amino-4-methyl-7-(2-pyrazin-2-ylphenyl)-7,8-dihydroquinazolin-5(6H)-one]", "IC50": "< 1000"}, {"compound": "Cc1nc(N)nc2c1C(=O)CC(c1ccccc1-c1ncccn1)C2", "note": "(stereo not drawn) [Compound 32, 2-amino-4-methyl-7-(2-pyrimidin-2-ylphenyl)-7,8-dihydroquinazolin-5(6H)-one]", "IC50": "< 1000"}, {"compound": "Cc1nc(N)nc2c1C(=O)CC(c1cccnc1-c1ccccn1)C2", "note": "(stereo not drawn) [Compound 33, 2-amino-7-(2,2′-bipyridin-3-yl)-4-methyl-7,8-dihydroquinazolin-5(6H)-one]", "IC50": "1000 to 10000"}, {"compound": "Cc1nc(N)nc2c1C(=O)CC(c1cccnc1-c1cnccn1)C2", "note": "(stereo not drawn) [Compound 34, 2-amino-4-methyl-7-(2-pyrazin-2-ylpyridin-3-yl)-7,8-dihydroquinazolin-5(6H)-one]", "IC50": "1000 to 10000"}, {"compound": "Cc1nc(N)nc2c1C(=O)CC(c1ccccc1-c1nccs1)C2", "note": "(stereo not drawn) [Compound 35, 2-amino-4-methyl-7-[2-(1,3-thiazol-2-yl)phenyl]-7,8-dihydroquinazolin-5(6H)-one]", "IC50": "< 1000"}, {"compound": "Cc1nc(N)nc2c1C(=O)CC(c1cccnc1-c1nccs1)C2", "note": "(stereo not drawn) [Compound 36, 2-amino-4-methyl-7-[2-(1,3-thiazol-2-yl)pyridin-3-yl]-7,8-dihydroquinazolin-5(6H)-one]", "IC50": "1000 to 10000"}, {"compound": "Cc1nc(N)nc2c1C(=O)CC(c1ccccc1C#Cc1ccccc1)C2", "note": "(stereo not drawn) [Compound 37, 2-amino-4-methyl-7-[2-(phenylethynyl)phenyl]-7,8-dihydroquinazolin-5(6H)-one]", "IC50": "> 10000"}, {"compound": "Cc1nc(N)nc2c1C(=O)CC(c1c(-c3ccccn3)cccc1-c1ccccn1)C2", "note": "(stereo not drawn) [Compound 38, 2-amino-7-(2,6-dipyridin-2-ylphenyl)-4-methyl-7,8-dihydroquinazolin-5(6H)-one]", "IC50": "< 1000"}, {"compound": "Cc1nc(N)nc2c1C(=O)CC(c1ccccc1-c1cn[nH]c1)C2", "note": "(stereo not drawn) [Compound 39, 2-amino-4-methyl-7-[2-(1H-pyrazol-4-yl)phenyl]-7,8-dihydroquinazolin-5(6H)-one]", "IC50": "1000 to 10000"}, {"compound": "Cc1nc(N)nc2c1C(=O)CC(c1ccccc1C1=CCCC1)C2", "note": "(stereo not drawn) [Compound 40, 2-amino-7-(2-cyclopent-1-en-1-ylphenyl)-4-methyl-7,8-dihydroquinazolin-5(6H)-one]", "IC50": "< 1000"}, {"compound": "Cc1nc(N)nc2c1C(=O)CC(c1ccccc1-c1ccccc1)C2", "note": "(stereo not drawn) [Compound 41, 2-amino-7-(1,1′-biphenyl-2-yl)-4-methyl-7,8-dihydroquinazolin-5(6H)-one]", "IC50": "< 1000"}, {"compound": "Cc1nc(N)nc2c1C(=O)CC(c1ccccc1-c1cncnc1)C2", "note": "(stereo not drawn) [Compound 42, 2-amino-4-methyl-7-(2-pyrimidin-5-ylphenyl)-7,8-dihydroquinazolin-5(6H)-one]", "IC50": "< 1000"}]}]}
